Measured values as given in US7638540B2, “Benzofuran compound and medicinal composition containing the same” (The New Industry Research Organization, priority 2003, dated 2009).

Tests used:
LTB4 receptor = experiment: TXB2 release from guinea pig eosinophils stimulated with LTB4 (LTB4 receptor antagonist activity); format: cell-based; details: 10^−3 M test compound (37.5 μl) added to 300 μl cell suspension, then 10^−7 M LTB4 (37.5 μl), 37° C. 15 min, positive control 100, negative control 0, N.D. = TXB2 concentration at measurement limit or less
Method: The LTB4 receptor antagonist activity of the test compound was examined using, as an index, thromboxane B2 (TXB2) released when stimulating eosinophil of guinea pig with LTB4.
Based on the method described in Japanese Journal of Pharmacology, vol. 70, p. 337-345 (1996) etc., eosinophils of guinea pig were prepared. A cell suspension (300 μl, 1.25×10^6 cells/ml) was placed in a 5 ml polypropylene test tube and, after incubation at 37° C. for 5 min., 10^−3 M test compound (37.5 μl) dissolved in 0.1% DMSO aqueous solution was added and the cells were continuously cultured for 5 min. Then, 10^−7 M LTB4 (37.5 μl) was added to induce the reaction and the cells were incubated at 37° C. for 15 min. The reaction was quenched in ice water, and the culture was centrifuged at 4° C., 3000 rpm for 10 min. The obtained supernatant was prepared as a sample for TXB2 measurement, and preserved at −80° C. before use for the measurement. The quantitation of TXB2 was performed using a TXB2 enzyme immunoassay kit (manufactured by Cayman Chemical Company). The release ratio (%) of TXB2 from the eosinophils was determined by the following formula: release ratio (%) of TXB2=[(average value of test compound administration group−average value of negative control group)/(average value of positive control group−average value of negative control group)]×100
As used herein, the positive control group means a group to which stimulation with LTB4 was applied but the same volume of a medium was given instead of the test compound, and the negative control group means a group to which stimulation with LTB4 was not applied, the same volume of a medium was given instead of LTB4, and the same volume of a medium was given instead of the test compound. When the release ratio of TXB2 is smaller than 0, it means that the measured TXB2 concentration was lower than that of the negative control group. When the TXB2 concentration in the sample was the measurement limit or less, N.D. is indicated.

Row | melting point [°C] | SMILES | Amount of TXB2 release (%) (LTB4 receptor)
1 | 121.8 to 122.3 | CCN(CC)C(=O)/C=C(\C)c1ccc2oc(C(C)=O)c(NC(=O)Cc3ccc(OC)cc3)c2c1 [Example 21, (E)-3-{2-acetyl-3-[2-(4-methoxyphenyl)acetylamino]-benzofuran-5-yl}-N,N-diethyl-2-butenamide] | 56.57
2 | 186.3 to 187.2 | CCOC(=O)c1oc2ccc(Br)cc2c1NC(=O)/C(C#N)=C(/C)O [Example 97, Ethyl (Z)-5-bromo-3-(2-cyano-3-hydroxy-2-butenoylamino)benzofurane-2-carboxylate] | −0.12
3 | 201.5 to 204.4 | CC(=O)c1oc2ccc(/C(C)=C/C(=O)N3CCN(c4ccccc4)CC3)cc2c1NC(=O)c1cnoc1C [Example 75, (E)-N-{2-acetyl-5-[1-methyl-3-oxo-3-(4-phenylpiperazin-1-yl)-1-propenyl]benzofuran-3-yl}-5-methylisoxazole-4-carboxamide] | 27.03
4 | 142 to 144 | CCN(CC)C(=O)/C=C(\C)c1ccc(OCC(=O)c2ccc3c(c2)OCO3)c2oc(C(C)=O)cc12 [Example 13, (E)-3-[2-acetyl-7-(2-benzo[1,3]dioxol-5-yloxoethoxy)benzofuran-4-yl]-N,N-diethyl-2-butenamide] | 31.8
5 | 180.2 to 181.1 | CC(=O)c1oc2ccc(Br)cc2c1NC(=O)/C=C/c1ccccc1 [Example 114, (E)-N-(2-acetyl-5-bromobenzofuran-3-yl)-3-phenylacrylamide] | 51.42
6 | 144 to 148.3 | CC(=O)c1oc2ccc(/C(C)=C/C(=O)N3CCN(Cc4ccccc4)CC3)cc2c1N [Example 19, (E)-3-(2-acetyl-3-aminobenzofuran-5-yl)-1-(4-benzylpiperazin-1-yl)-2-buten-1-one] | 48.63
7 | 168 to 173 | COc1ccc(CCNC(=O)/C=C(\C)c2ccc3oc(C(C)=O)c(N)c3c2)cc1OC [Example 17, (E)-3-(2-acetyl-3-aminobenzofuran-5-yl)-N-[2-(3,4-dimethoxyphenyl)ethyl]-2-butenamide] | 27.92
8 | 189 to 193 | CCOC(=O)c1ccc(OC)c(NC(=O)/C=C(\C)c2ccc3oc(C(C)=O)c(N)c3c2)c1 [Example 16, Ethyl (E)-3-[3-(2-acetyl-3-aminobenzofuran-5-yl)-2-butenoylamino]-4-methoxybenzoate] | 56.57
9 | 169.3 to 171 | CCN(CC)C(=O)/C=C(\C)c1ccc2oc(C(C)=O)c(NC(=O)/C(C#N)=C(/C)O)c2c1 [Example 94, N-{2-acetyl-5-[(E)-2-diethylcarbamoyl-1-methylvinyl]benzofuran-3-yl}-2-cyano-3-hydroxy-(Z)-2-butenamide] | −0.1

The remaining lines, values behind:

Row | SMILES | melting point [°C] | Amount of TXB2 release (%) (LTB4 receptor)
10 | CC(=O)c1cc2c(/C(C)=C/C(=O)N3CCN(Cc4ccccc4)CC3)ccc(OC(C)c3ccccc3)c2o1 (stereo not shown) [Example 10, (E)-3-[2-acetyl-7-(1-phenylethoxy)benzofuran-4-yl]-1-(4-benzylpiperazin-1-yl)-2-buten-1-one] | 196 to 202.1 | 23.43
11 | CC(=O)c1cc2c(/C(C)=C/C(=O)N3CCOCC3)ccc(OC(C)c3ccccc3)c2o1 (stereo not shown) [Example 9, (E)-3-[2-acetyl-7-(1-phenylethoxy)benzofuran-4-yl]-1-morpholino-2-buten-1-one] | 173.9 to 175.4 | 0.68
12 | COc1ccc2c(NC(=O)/C=C/c3ccccc3)c(C(C)=O)oc2c1 [Example 120, (E)-N-(2-acetyl-6-methoxybenzofuran-3-yl)-3-phenylacrylamide] | 142 to 144.5 | 1.32
13 | CC(NC(=O)/C=C/c1ccccc1)c1cc2cccc(OCCCCl)c2o1 (stereo not shown) [Example 131, (E)-N-{1-[7-(3-chloropropoxy)benzofuran-2-yl]ethyl}-3-phenylacrylamide] | 132.2 to 139.7 | 2.14
14 | COc1cccc(NC(=O)/C=C(/C)c2cc3c(S(=O)(=O)NCCc4ccc(OC)c(OC)c4)ccc(OCCCCl)c3o2)c1 [Example 52, (Z)-3-{7-(3-chloropropoxy)-4-[2-(3,4-dimethoxyphenyl)ethylsulfamoyl]benzofuran-2-yl}-N-(3-methoxyphenyl)-2-butenamide] | 146.1 to 150 | 60.6
15 | CCOC(=O)c1oc2ccccc2c1NC(=O)/C=C/c1ccccc1 [Example 119, Ethyl (E)-3-(3-phenylacryloylamino)benzofurane-2-carboxylate] | 162.4 to 163.8 | 9.8
16 | CC(=O)c1cc2c(/C(C)=C/C(=O)N3CCN(c4ccccc4)CC3)ccc(OC(C)c3ccccc3)c2o1 (stereo not shown) [Example 5, (E)-3-[2-acetyl-7-(1-phenylethoxy)benzofuran-4-yl]-1-(4-phenylpiperazin-1-yl)-2-buten-1-one] | 79 to 84.6 | 81.6
17 | CC(=O)c1cc2c(/C(C)=C/C(=O)N3CCN(c4ccccc4)CC3)ccc(OC(c3ccccc3)c3ccccc3)c2o1 [Example 6, (E)-3-(2-acetyl-7-benzhydryloxybenzofuran-4-yl)-1-(4-phenylpiperazin-1-yl)-2-buten-1-one] | 152 to 160 | 38.93
18 | C/C=C/C(=O)NC(C)c1cc2cccc(OC)c2o1 (stereo not shown) [Example 130, (E)-[1-(7-methoxybenzofuran-2-yl)ethyl]-2-butenamide] | 128.7 to 130.2 | 35.44
19 | CCOC(=O)CCCOc1cccc2cc(/C(C)=C/C(=O)Nc3ccc(OC)cc3)oc12 [Example 28, Ethyl (E)-4-{2-[2-(4-methoxyphenylcarbamoyl)-1-methylvinyl]benzofuran-7-yloxy}butyrate] | 141.3 to 141.5 | −0.23
20 | COc1cccc2cc(C(C)NC(=O)/C=C/c3ccccc3)oc12 (stereo not shown) [Example 132, (E)-N-[1-(7-methoxybenzofuran-2-yl)ethyl]-3-phenylacrylamide] | 154.5 to 156.5 | 14.05
21 | COc1cccc(NC(=O)/C=C/C=C(\Cl)c2cc3cc(Br)ccc3o2)c1 [Example 54, (2E,4Z)-5-(5-bromobenzofuran-2-yl)-5-chloropenta-2,4-dienoic acid (3-methoxyphenyl)amide] | 204.3 to 207.1 | 60.6
22 | COc1cccc(NC(=O)/C=C/C=C(\Cl)c2cc3cccc(OC)c3o2)c1 [Example 57, (2E,4Z)-5-chloro-5-(7-methoxybenzofuran-2-yl)penta-2,4-dienoic acid (3-methoxyphenyl)amide] | 194.3 to 197.3 | 78.01
23 | COc1cccc(NC(=O)/C=C(\C)c2cc3c(S(=O)(=O)NCCc4ccc(OC)c(OC)c4)ccc(OCCCCl)c3o2)c1 [Example 51, (E)-3-{7-(3-chloropropoxy)-4-[2-(3,4-dimethoxyphenyl)ethylsulfamoyl]benzofuran-2-yl}-N-(3-methoxyphenyl)-2-butenamide] | 162.2 to 164.5 | 38.93
24 | CC(=O)c1cc2c(/C(C)=C/C(=O)N3CCOCC3)ccc(OC(c3ccccc3)c3ccccc3)c2o1 [Example 7, (E)-3-(2-acetyl-7-benzhydryloxybenzofuran-4-yl)-1-morpholino-2-buten-1-one] | 167 to 169.3 | 9.89
25 | O=C(/C=C/c1ccccc1)Nc1c(C(=O)O)oc2ccccc12 [Example 121, (E)-3-(3-phenylacryloylamino)benzofurane-2-carboxylic acid] | 197.8 to 200.2 | 5.77
26 | CCOC(=O)CCCOc1cccc2cc(/C(C)=C/C(=O)NCC(=O)OCC)oc12 [Example 40, Ethyl (E)-4-{2-[2-(ethoxycarbonylmethylcarbamoyl)-1-methylvinyl]benzofuran-7-yloxy}butyrate] | 96.2 to 98.5 | −0.18
